Test systems include SNB-78; XF498; RXF 631; DMS-114; HOP-18; DLD-1; LXFL 529; T47D; MDA-N.
What all share (test): DTP human tumour cell line panel, 48 h

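Five compound concentrations were applied to cells in 96-well plates for 48 hours; endpoints were derived by simple linear interpolation of the resulting dose-response curve. GI50 marks 50% less growth.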 The source made the active and inactive calls. Rule as the data show it: active = GI50 up to about 1.1 µM and inactive = higher. Bounds are passed on as bounds.

What is called GI50 is the concentration at which growth is held to half of that of the control. Take `COc1cc(C2C3=C(CCC3=O)Oc3cc4c(cc32)OCO4)cc(OC)c1OC` (configuration not stated): the GI50 was 0.706 µM (active) in the test with SNB-78; 0.122 µM (active) in the test on XF498; 0.367 µM (active) in the test on RXF 631; 0.218 µM (active) in the test on DMS-114; > 100 µM (inactive) in the test with HOP-18.

Regarding `Cc1cc(N(CCC#N)CCC#N)ccc1/N=N/c1cccc(C(=O)O)c1`, the GI50 is > 100 µM (inactive) in the test with SNB-78; 52.4 µM (inactive) with XF498; > 100 µM (inactive) in the test with RXF 631; > 100 µM (inactive) in the test on DLD-1; > 100 µM (inactive) in the test on DMS-114; > 100 µM (inactive) in the test with HOP-18. Moreover, the GI50 in the test on LXFL 529 is > 100 µM (inactive).

Turning to `Cc1ccc(C(=O)CC2=Nc3nnc(CCCCCCCc4nnc5n4C(=O)C(CC(=O)c4ccc(C)cc4)=N5)n3C2=O)cc1`, the GI50 in the test with XF498, in the test with RXF 631, with DLD-1, in the test with DMS-114, in the test with HOP-18 and in the test on LXFL 529 was > 100 µM (inactive) each time.

On to `CCOC(=O)[C@H]1Nc2ccc(Cl)cc2[C@H]2OCC[C@@H]12`, for which the GI50 with SNB-78, in the test with XF498, in the test on RXF 631, with DLD-1, in the test on DMS-114 and with HOP-18 was > 100 µM (inactive) each time. Further, the GI50 in the test on LXFL 529 was > 100 µM (inactive).

For `COC(=O)C(Cc1nc2ccccc2nc1O)C(=O)C(=O)Nc1ccc(F)cc1` (configuration not stated), the GI50 is 54 µM (inactive) with XF498; 32.7 µM (inactive) in the test on RXF 631; 32.9 µM (inactive) in the test with DLD-1; 22.9 µM (inactive) with DMS-114; > 100 µM (inactive) in the test on HOP-18; 15.7 µM (inactive) with LXFL 529.

For the molecule `CCCCCCCCCCCC(=O)OC[C@H](C[As](=O)(O)O)OC(=O)CCCCCCCCCCC`, the GI50 was 2.94 µM (inactive) with SNB-78; 10.1 µM (inactive) in the test on XF498; 13.2 µM (inactive) with DLD-1; 15.3 µM (inactive) with T47D; 1.95 µM (inactive) in the test on DMS-114; 7.29 µM (inactive) in the test on HOP-18. Moreover, the GI50 was 4.34 µM (inactive) with MDA-N and 3.82 µM (inactive) with LXFL 529.

Take `CNC(=O)OCc1nc(SC)n(C)c1COC(=O)NC`: the GI50 was 68.4 µM (inactive) in the test on SNB-78; 253 µM (inactive) with XF498; 183 µM (inactive) in the test on DLD-1; 171 µM (inactive) in the test with T47D; 80.5 µM (inactive) in the test on DMS-114; 232 µM (inactive) in the test on HOP-18. The GI50 in the test on MDA-N was 161 µM (inactive).

In the case of `O=C(c1ccccc1)[C@H]1Nc2ccc(Cl)cc2[C@H]2OCCC[C@@H]12`, the GI50 was 24.1 µM (inactive) in the test on SNB-78; 19.5 µM (inactive) in the test with XF498; 17.9 µM (inactive) in the test on RXF 631; 14.2 µM (inactive) in the test with DMS-114; 18.5 µM (inactive) in the test with HOP-18; 12.1 µM (inactive) with LXFL 529.

`CN1OC(=O)N(C)C1c1ccccc1` (configuration not stated): the GI50 in the test on SNB-78, with XF498, in the test on DLD-1, in the test on DMS-114 and with HOP-18 was > 100 µM (inactive) each time.

As for `CC(C)CCCCCCCCCCCCC(=O)NCC(=O)NC1C(C)OC(Nc2ncnc3c2ncn3C)C(O)C1O` (configuration not stated), the GI50 is 4.72 µM (inactive) with SNB-78; 3.56 µM (inactive) in the test on XF498; 12.1 µM (inactive) in the test on DLD-1; 7.82 µM (inactive) with DMS-114; 2.48 µM (inactive) in the test with HOP-18.

For the molecule `CCOC(=O)CC(=O)ON(C)C(=O)Cc1ccccc1`, the GI50 in the test on SNB-78, with RXF 631, in the test on DLD-1, in the test on DMS-114 and with LXFL 529 was > 100 µM (inactive) each time.

`Cc1nc2ccc(NCCN(C)C)c3c(=O)c4ccccc4n1c23`: the GI50 with SNB-78 was 6.79 µM (inactive); in the test on RXF 631, 1.74 µM (inactive); with DLD-1 it was 2.74 µM (inactive); with T47D it was 12.2 µM (inactive); in the test on DMS-114, 5.52 µM (inactive); in the test on HOP-18, 3.2 µM (inactive). Also, the GI50 in the test with MDA-N is 1.66 µM (inactive); with LXFL 529, 6.56 µM (inactive).

In the case of `O=C(Nc1ccccc1)C(=O)C(C(=O)c1ccccc1F)C1OC(=O)c2ccccc21` (configuration not stated), the GI50 in the test on SNB-78 is > 100 µM (inactive); in the test on XF498, 20.7 µM (inactive); in the test with RXF 631, 31.2 µM (inactive); in the test with DLD-1, 41.9 µM (inactive); in the test with DMS-114, 20.9 µM (inactive); in the test on LXFL 529, 23.6 µM (inactive).

On to `C=C1C(=O)O[C@@H]2C[C@]3(C)[C@@H](C[C@H]12)[C@](C)(O)CC[C@@H]3O`, for which the GI50 in the test with SNB-78 is 47.8 µM (inactive); with XF498 it was 36.5 µM (inactive); in the test on RXF 631, 87.5 µM (inactive); with DLD-1 it was 41 µM (inactive); in the test with DMS-114, 39.2 µM (inactive); in the test on LXFL 529 it was 44 µM (inactive).

With `CCC1(c2ccc(N)cc2)CCC(=O)NC1=O` (configuration not stated) [AMINOGLUTETHIMIDE], the GI50 in the test with SNB-78 was 2170 µM (inactive); with XF498, 1550 µM (inactive); in the test with DLD-1, 3230 µM (inactive); with T47D, 2070 µM (inactive); in the test with DMS-114, 1530 µM (inactive); in the test on HOP-18, 3120 µM (inactive). Moreover, the GI50 in the test with MDA-N was 3250 µM (inactive).

For the molecule `COc1ccc(/C=C/C(=N\NC(=O)c2ccccc2)c2sc(Nc3ccc([N+](=O)[O-])cc3)nc2C)cc1OC`, the GI50 was 8.55 µM (inactive) with SNB-78; 10.3 µM (inactive) in the test on XF498; 6.27 µM (inactive) in the test with DLD-1; 15.1 µM (inactive) with DMS-114; 27.7 µM (inactive) with HOP-18; 7.67 µM (inactive) in the test with LXFL 529.

Consider `COc1ccc(C2Oc3cc(OC)c(O)cc3[C@@H]2C)cc1` (some centres not stated), for which the GI50 in the test on SNB-78 was > 100 µM (inactive); in the test with XF498, 16.9 µM (inactive); with DLD-1 it was 19.9 µM (inactive); in the test with DMS-114, 18.7 µM (inactive); in the test on HOP-18 it was 5.05 µM (inactive); with LXFL 529, 17.5 µM (inactive).

Take `CCOC(OC1=C(C#N)CCCC1)C(CC)[Se]c1ccccc1[N+](=O)[O-]` (configuration not stated): the GI50 in the test with SNB-78 was 25.5 µM (inactive); in the test on XF498, 30.2 µM (inactive); in the test on DLD-1 it was 17.9 µM (inactive); in the test on DMS-114 it was 15.7 µM (inactive); with HOP-18, 26.5 µM (inactive); with LXFL 529, 26.5 µM (inactive).

The record behind these values is ChEMBL document CHEMBL1201862, “PubChem BioAssay data set” (2004).
